Values quoted from earlier work in patent publication EP3819377A1, “CIRCULAR RNA AND USES THEREOF FOR […]-BINDING PROTEINS” (Justus-Liebig-Universität Gießen, priority 2019, dated 2021).

Conditions: cationic lipid with a tertiary amine group; WO 2012/031046 A2

CCCCC/C=C\C/C=C\CCCCCCCCOCC(CN(C)C)OCCCCCCCC/C=C\C/C=C\CCCCC (stereo not shown) [DLinDMA, 1,2-dilinoleyloxy-N,N-dimethyl-3-aminopropane]
pKa: 5.8
